Reference: US20250367419A1, “DRUG DELIVERY SYSTEM COMPRISING AN AGENT EFFECTIVE IN THE TREATMENT OR PREVENTION OF AN ESOPHAGEAL DISEASE FOR THE APPLICATION TO ESOPHAGEAL MUCOUS MEMBRANES” (EsoCap AG, priority 2022, published 2025)
Entries after “also recorded” stand apart in the source; their conditions may differ. r = 2'-OH (RNA)

How the values were obtained:
Assay type in all cases: physicochemical
[1] = Stability of RNA on the polymer film, 20% denaturing polyacrylamide gel
Protocol: • 1. preparation “base polymer mixture” • 2. sterilization • 3. preparation of film laminates • 4. drying • 5. cutting (A=0.25 cm^2) • 6. application of RNA samples on the polymer film • 7. drying of the final samples • !points 3-7 under aseptic conditions!
Stability of RNA on the film was analyzed using a 20% denaturizing polyacrylamide (PAA) gel. The experiment was repeated with a commercially available siRNA.
Stability of RNA on the film was further analyzed before and after solubilization of the film.

[2] = Stability of antisense BMP2 RNA on the film under various application and storage conditions, 20% denaturing polyacrylamide gel; settings: for RNA degradation after storage of the dry film: 10 days of storage of the dry film at 4° C.
Protocol: A film containing the antisense RNA for BMP2 was prepared as described in Example 2 except for using PVA 4-88 instead of PVA 18-88.
The stability of the antisense BMP2 RNA was analyzed under various application conditions as indicated in FIG. 16 and the legend of FIG. 16. 10 pmol of each probe was loaded on a 20% denaturing polyacrylamide gel. The gel was run for 3 hours at 140 volt and subsequently colored with SYBR gold for 20 minutes.
The stability of labeled antisense BMP2 RNA was analyzed in comparison to unlabeled antisense BMP2 RNA under various application conditions as indicated in FIG. 17 and the legend of FIG. 17. In lanes 1 to […], 5 pmol of the probe, in lanes 4 to 6, 10 pmol of each probe were loaded on a 20% denaturing polyacrylamide gel. The gel was run for 3 hours at 140 volt and subsequently colored with ethidium bromide for 30 minutes (FIG. 17a) or excited with light of a wavelength of 630 nm and emission was measured at 675 nm (FIG. 17b). The bands of labeled BMP2 RNA in FIG. 17b correspond to the band of the unlabeled BMP2 RNA in FIG. 17a Since the unlabeled BMP2 RNA has no fluorescent marker, the bands of unlabeled BMP2 RNA are not visible in FIG. 17b.
The stability of labeled antisense BMP2 RNA was analyzed in comparison to unlabeled antisense BMP2 RNA after storage of the dry film for 10 days at 4° C. Probes were loaded on a 20% denaturing polyacrylamide gel. The gel was run for 3 hours at 140 volt and subsequently colored with ethidium bromide for 30 minutes (FIG. 18b) or excited with light of a wavelength of 630 nm and emission was measured at 675 nm (FIG. 18a). The bands of labeled BMP2 RNA in FIG. 18a correspond to the band of the unlabeled BMP2 RNA in FIG. 18b.

[3] = HPLC analysis of paclitaxel content of the coated polymer film; settings: API-loaded film sample compared with calibration sample
Protocol: • 1. Preparation polymer mixture • 2. Preparation of film laminates • 3. Slitting of the moist laminates • 4. Coating of the moist laminates • 5. Drying at room temperature
Further, the film was analyzed for the content of paclitaxel. To this end, 5 circular samples with a size of 1 cm^2 were cut at random positions of the film and dissolved in Brij® L23-buffer/methanol (MeOH) for HPLC analysis with Hypersil ODS 150×4.6 mm as stationary phase and acetonitrile/phosphate buffer as mobile phase. The HPLC results are shown in FIG. 11 in comparison to a blank film sample and a calibration sample.

With “5′ UGCGCAGAAUGAGAUGAGUUG 3′ (UGCGCAGAAUGAGAUGAGUUG; listed as RNA, chemistry not given here)” the “influence of the film on RNA stability” value ([1]; RNA applied on PVA 18-88 film, 20% denaturing PAA gel) was “no influence on the stability” and the “storage stability of RNA on the dry film” value ([1]; dried samples on the film, 4 days at 4° C.) was “no influence on RNA stability”.

With “5′-AUU UCG AGU UGG CUG UUG C-3′ (antisense AUUUCGAGUUGGCUGUUGC; RNA, 3' rUrU, backbone not given here) [BMP2 RNA, antisense strand of BMP2-siRNA 2]” the “RNA degradation after storage of the dry film” value [2] was “no RNA degradation could be observed” and the “stability of RNA after application to the film” value ([2]; PVA 4-88 film, various application conditions, compared with stock sample) was “no difference between the test sample and the stock sample; also recorded: not degraded by the film”.

For “labeled BMP2 RNA: SEQ ID NO:23 antisense BMP2 RNA labeled with the dye Atto633 attached to the 3′ end (antisense AUUUCGAGUUGGCUGUUGC; listed as RNA, chemistry not fully specified)”, the “RNA degradation after storage of the dry film” value [2] was “no RNA degradation could be observed”.

For CC(=O)O[C@H]1C(=O)[C@@]2(C)[C@H]([C@H](OC(=O)c3ccccc3)[C@]3(O)C[C@H](OC(=O)[C@H](O)[C@@H](NC(=O)c4ccccc4)c4ccccc4)C(C)=C1C3(C)C)[C@]1(OC(C)=O)CO[C@@H]1C[C@@H]2O [paclitaxel, (2α,4α,5β,7β,10β,13α)-4,10-Bis(acetyloxy)-13-{[(2R,3S)-3-(benzoylamino)-2-hydroxy-3-phenylpropanoyl]oxy}-1,7-dihydroxy-9-oxo-5,20-epoxytax-11-en-2-yl-benzoat], the “stability of paclitaxel prepared in a film” value [3] was “can be stably prepared in a film”.
